The target of one data set is T1, GR (Homo sapiens, UniProt P04150).
T1 construct: expressed in transfected cells; host or cells: CHO-K1
T1 sequence (P04150 1-777): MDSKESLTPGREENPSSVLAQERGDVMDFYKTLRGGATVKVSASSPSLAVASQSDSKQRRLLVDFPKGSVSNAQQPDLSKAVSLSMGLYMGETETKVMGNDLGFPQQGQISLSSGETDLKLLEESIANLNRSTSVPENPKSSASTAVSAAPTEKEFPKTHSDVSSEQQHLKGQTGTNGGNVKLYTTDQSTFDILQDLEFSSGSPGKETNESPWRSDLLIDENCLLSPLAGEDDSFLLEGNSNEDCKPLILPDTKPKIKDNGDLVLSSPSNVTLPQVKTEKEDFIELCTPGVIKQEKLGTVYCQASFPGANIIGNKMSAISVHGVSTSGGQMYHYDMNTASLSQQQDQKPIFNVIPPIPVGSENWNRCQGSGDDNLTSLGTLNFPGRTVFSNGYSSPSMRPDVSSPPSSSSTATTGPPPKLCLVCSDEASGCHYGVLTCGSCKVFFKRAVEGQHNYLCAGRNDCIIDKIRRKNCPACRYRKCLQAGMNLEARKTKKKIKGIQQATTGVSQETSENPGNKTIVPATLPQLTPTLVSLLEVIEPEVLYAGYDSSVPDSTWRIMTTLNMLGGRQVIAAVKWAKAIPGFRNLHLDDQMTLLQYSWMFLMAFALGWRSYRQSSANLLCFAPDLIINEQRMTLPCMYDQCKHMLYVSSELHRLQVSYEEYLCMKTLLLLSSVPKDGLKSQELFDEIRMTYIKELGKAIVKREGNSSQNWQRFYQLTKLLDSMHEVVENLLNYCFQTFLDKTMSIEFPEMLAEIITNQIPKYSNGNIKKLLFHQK
Nature of the data set: In Vitro GR Luciferase Reporter Assay (antagonist mode, CHO-K1-GR-MMTV-Luc reporter cells). It is filed as cell-based. The gist of the method:
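CHO-K1-GR-MMTV-Luc cells in phenol red-free DMEM with 10% CSS, stimulated with 10 nM dexamethasone (final) and treated with 8-point 1:5 compound dilutions for about 18-24 h at 37° C. Luciferase measured by OneGlo luminescence; IC50 derived for inhibition of GR activity.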

The target of another data set is T2, CYP2C8 (Homo sapiens, UniProt P10632).
T2 construct: Pooled human microsomes were obtained from Sekisui XenoTech, KS; tissue Sekisui XenoTech, KS; host or cells: pooled human liver microsomes
T2 sequence (P10632 1-490): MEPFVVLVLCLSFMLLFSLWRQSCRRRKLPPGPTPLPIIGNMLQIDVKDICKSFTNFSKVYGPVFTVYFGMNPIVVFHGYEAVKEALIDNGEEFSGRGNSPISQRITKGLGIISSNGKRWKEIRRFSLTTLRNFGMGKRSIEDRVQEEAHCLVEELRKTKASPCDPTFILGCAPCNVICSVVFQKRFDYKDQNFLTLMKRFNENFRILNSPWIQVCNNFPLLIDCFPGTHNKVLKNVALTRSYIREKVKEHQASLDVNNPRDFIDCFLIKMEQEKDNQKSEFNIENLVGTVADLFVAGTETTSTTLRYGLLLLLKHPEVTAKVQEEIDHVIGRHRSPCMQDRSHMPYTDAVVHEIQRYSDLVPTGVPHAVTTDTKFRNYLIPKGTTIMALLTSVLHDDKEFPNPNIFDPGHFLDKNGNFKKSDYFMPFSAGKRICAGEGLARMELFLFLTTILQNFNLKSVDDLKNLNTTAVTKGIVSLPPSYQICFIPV
The data set can be described thus: CYP Inhibition Assay (CYP2C8, human liver microsomes, paclitaxel substrate). Type of data set: in vitro ADME. Particulars: pH 7.4; pooled human liver microsomes 0.1 mg/mL, probe substrate paclitaxel. Here is the method: Example B: CYP Inhibition Assay
Objective: To assess the % inhibition of test compounds against CYP2C8 enzyme in human liver microsomes.
Pooled human microsomes were obtained from Sekisui XenoTech, KS, and were used for in vitro assessment of compound inhibitory potential of the major drug metabolizing human CYP enzymes.
Test compounds were dissolved in DMSO as 10 mM stock solutions and diluted to 200 µM in acetonitrile as working solutions. The total concentrations of DMSO and acetonitrile were 0.02% and 0.5%, respectively, in the assay.
The assay was performed in duplicate in a 96-well plate. The reaction mixture ([…]) containing a final concentration of 0.1 mg/mL pooled human liver microsomes, 50 mM potassium phosphate, pH 7.4 buffer, was re-warmed at 37° C. for 5 minutes. The reaction was initiated with NADPH solution which was at 1 mM final concentration, and carried out for 5 minutes at 37° C. It was terminated by the addition of 3-fold volume of quench solution (1:1 acetonitrile:methanol with 0.1% formic acid and the internal standard of tolbutamide). The sample was vortexed, centrifuged at 4,000 rpm for 15 min at 4° C. The incubation in the presence of vehicle (0.02% DMSO and 0.5% acetonitrile) was used as the enzyme activity control. The analyses of metabolite 6α-hydroxypaclitaxel in supernatant was performed with LC-MS/MS method (Sciex API 4500 Qtrap coupled to a Shimadzu LC-20AD HPLC).
The CYP enzyme activity was determined based on the formation of 6a-hydroxypaclitaxel metabolite. The % inhibition was calculated using this equation: % Inhibition=100×(1−Ainactivator/Avehicle), where Ainactivator is the CYP enzyme activity in the presence of test compound, and Avehicle is the CYP activity in the presence of vehicle.

The mark [1] stands for this setting: antagonist assay with 10 nM Dexamethasone, 18-24 hours.

The text below walks through data of US20210122730A1, “GLUCOCORTICOID RECEPTOR MODULATORS” (ORIC Pharmaceuticals, Inc., priority 2017, published 2021).

For orientation: IC50 means the concentration that inhibits the measured activity by half. In general, inhibition refers to the share of the control response that was lost under treatment. A lower inhibition goes with little suppression.

On GR (antagonist mode, 10 nM Dexamethasone), `CN(C(=O)[C@H]1CCC2=Cc3c(cnn3-c3ccc(F)cc3)C[C@]2(C(=O)c2cc(C(F)(F)F)ccn2)C1)c1cnn(C)c1` (single isomer, unassigned) [Example 122] returned an IC50 of at most 0.1 µM. At CYP2C8, this compound gave an inhibition at 5 min of at most 25%.

On GR (setting [1]), `CN([C@H]1CCC2=Cc3c(cnn3-c3ccc(F)cc3)C[C@]2(C(=O)c2ccccn2)C1)S(=O)(=O)c1ccc(Cl)cc1` [Example 4, 4-Chloro-N-((4aS,6S)-1-(4-fluorophenyl)-4a-picolinoyl-4,4a,5,6,7,8-hexahydro-1H-benzo[f]indazol-6-yl)-N-methylbenzenesulfonamide] displayed an IC50 of at most 0.1 µM. The inhibition at 5 min on CYP2C8 fell in the range of 50 to 75%. On to `CCn1ncc(S(=O)(=O)[C@H]2CCC3=Cc4c(cnn4-c4ccc(F)cc4)C[C@]3(C(=O)c3cc(C(F)(F)F)ccn3)C2)n1` [Example 52, ((4aS,6S)-6-((2-ethyl-2H-1,2,3-triazol-4-yl)sulfonyl)-1-(4-fluorophenyl)-1,4,5,6,7,8-hexahydro-4aH-benzo[f]indazol-4a-yl)(4-(trifluoromethyl)pyridin-2-yl)methanone], for which the IC50 at GR (setting [1]) is at most 0.1 µM. The compound further returned an inhibition at 5 min against CYP2C8 of 75 to 90%. For the compound `O=C(c1ccc(C(F)(F)F)cn1)[C@]12Cc3cnn(-c4ccc(F)cc4)c3C=C1CC[C@H](S(=O)(=O)c1ccc(F)cc1)C2` [Example 55, ((4aS,6S)-1-(4-fluorophenyl)-6-((4-fluorophenyl)sulfonyl)-1,4,5,6,7,8-hexahydro-4aH-benzo[f]indazol-4a-yl)(5-(trifluoromethyl)pyridin-2-yl)methanone], at GR (setting [1]), the IC50 was at most 0.1 µM. Moreover, the inhibition at 5 min on CYP2C8 is at most 25%. The compound `CC(C)n1ncc(S(=O)(=O)[C@H]2CCC3=Cc4c(cnn4-c4ccc(F)cc4)C[C@]3(C(=O)c3cc(C(F)(F)F)ccn3)C2)n1` [Example 56, ((4aS,6S)-1-(4-fluorophenyl)-6-((2-isopropyl-2H-1,2,3-triazol-4-yl)sulfonyl)-1,4,5,6,7,8-hexahydro-4aH-benzo[f]indazol-4a-yl)(4-(trifluoromethyl)pyridin-2-yl)methanone] came in with an IC50 against GR (setting [1]) of at most 0.1 µM. For the same compound, at CYP2C8, the inhibition at 5 min was 75 to 90%. Regarding `Cn1cc(S(=O)(=O)[C@H]2CCC3=Cc4c(cnn4-c4ccc(F)cc4)C[C@]3(C(=O)c3ccc(C(F)(F)F)cn3)C2)cn1` [Example 69, ((4aS,6S)-1-(4-fluorophenyl)-6-((1-methyl-1H-pyrazol-4-yl)sulfonyl)-1,4,5,6,7,8-hexahydro-4aH-benzo[f]indazol-4a-yl)(5-(trifluoromethyl)pyridin-2-yl)methanone], the half-inhibitory concentration (IC50) against GR (setting [1]) is at most 0.1 µM. This compound also gave an inhibition at 5 min at CYP2C8 of at most 25%.

Regarding `CN([C@H]1CCC2=Cc3c(cnn3-c3ccc(F)cc3)C[C@]2(C(=O)c2cc(C(F)(F)F)ccn2)C1)S(=O)(=O)c1cnn(C)c1` [Example 81, N-((4aS,6S)-1-(4-fluorophenyl)-4a-(4-(trifluoromethyl)picolinoyl)-4,4a,5,6,7,8-hexahydro-1H-benzo[f]indazol-6-yl)-N,1-dimethyl-1H-pyrazole-4-sulfonamide], the IC50 against GR (setting [1]) is at most 0.1 µM. Moreover, on CYP2C8, the inhibition at 5 min lay within 25 to 50%. With `CN([C@H]1CCC2=Cc3c(cnn3-c3ccc(F)cc3)C[C@]2(C(=O)c2cc(C(F)(F)F)ccn2)C1)S(=O)(=O)c1cnn(C)n1` [Example 90, N-((4aS,6S)-1-(4-fluorophenyl)-4a-(4-(trifluoromethyl)picolinoyl)-4,4a,5,6,7,8-hexahydro-1H-benzo[f]indazol-6-yl)-N,2-dimethyl-2H-1,2,3-triazole-4-sulfonamide], at GR (setting [1]), the 50% inhibitory concentration (IC50) is at most 0.1 µM. The inhibition at 5 min against CYP2C8 lay in the range of 50 to 75%. For `CCN([C@H]1CCC2=Cc3c(cnn3-c3ccc(F)cc3)C[C@]2(C(=O)c2cc(C(F)(F)F)ccn2)C1)S(=O)(=O)c1cnn(C)c1` [Example 91, N-ethyl-N-((4aS,6S)-1-(4-fluorophenyl)-4a-(4-(trifluoromethyl)picolinoyl)-4,4a,5,6,7,8-hexahydro-1H-benzo[f]indazol-6-yl)-1-methyl-1H-pyrazole-4-sulfonamide] the same measures were at most 0.1 µM and 50 to 75%. For `CN([C@H]1CCC2=Cc3c(cnn3-c3ccc(F)cc3)C[C@]2(C(=O)c2ccc(C3CC3)cn2)C1)S(=O)(=O)c1cnn(C)c1` [Example 93, N-((4aS,6S)-4a-(5-cyclopropylpicolinoyl)-1-(4-fluorophenyl)-4,4a,5,6,7,8-hexahydro-1H-benzo[f]indazol-6-yl)-N,1-dimethyl-1H-pyrazole-4-sulfonamide] the same measures were at most 0.1 µM and 75 to 90%. For `CN([C@H]1CCC2=Cc3c(cnn3-c3ccc(F)cc3)C[C@]2(C(=O)c2cc(C(F)(F)F)ccn2)C1)S(=O)(=O)C1CCOCC1` [Example 94, N-((4aS,6S)-1-(4-fluorophenyl)-4a-(4-(trifluoromethyl)picolinoyl)-4,4a,5,6,7,8-hexahydro-1H-benzo[f]indazol-6-yl)-N-methyltetrahydro-2H-pyran-4-sulfonamide] the same measures were at most 0.1 µM and 50 to 75%. For the compound `CN([C@H]1CCC2=Cc3c(cnn3-c3ccc(F)cc3)C[C@]2(C(=O)c2cc(C(F)(F)F)ccn2)C1)S(=O)(=O)c1ccc(Cl)cc1` [Example 99, 4-chloro-N-((4aS,6S)-1-(4-fluorophenyl)-4a-(4-(trifluoromethyl)picolinoyl)-4,4a,5,6,7,8-hexahydro-1H-benzo[f]indazol-6-yl)-N-methylbenzenesulfonamide], the IC50 on GR (setting [1]) is at most 0.1 µM. The compound also yielded an inhibition at 5 min against CYP2C8 of 25 to 50%. `Cn1cc(C(=O)N(C2CC2)[C@H]2CCC3=Cc4c(cnn4-c4ccc(F)cc4)C[C@]3(C(=O)c3cc(C(F)(F)F)ccn3)C2)cn1` [Example 102, N-cyclopropyl-N-((4aS,6S)-1-(4-fluorophenyl)-4a-(4-(trifluoromethyl)picolinoyl)-4,4a,5,6,7,8-hexahydro-1H-benzo[f]indazol-6-yl)-1-methyl-1H-pyrazole-4-carboxamide]: on GR (setting [1]), the IC50 is at most 0.1 µM. The inhibition at 5 min on CYP2C8 lay within 75 to 90%. The compound `Cn1cnc(S(=O)(=O)N(CCF)[C@H]2CCC3=Cc4c(cnn4-c4ccc(F)cc4)C[C@]3(C(=O)c3ncc(C(F)(F)F)s3)C2)n1` [Example 112, N-(2-Fluoroethyl)-N-((4aS,6S)-1-(4-fluorophenyl)-4a-(5-(trifluoromethyl)thiazole-2-carbonyl)-4,4a,5,6,7,8-hexahydro-1H-benzo[f]indazol-6-yl)-1-methyl-1H-1,2,4-triazole-3-sulfonamide] returned an inhibition at 5 min against CYP2C8 of 75 to 90%.
